pKi: −log10 of the molar value. A value given as a limit tells only on which side of the number the result lay.

T1 sequence (O00311 whole entry): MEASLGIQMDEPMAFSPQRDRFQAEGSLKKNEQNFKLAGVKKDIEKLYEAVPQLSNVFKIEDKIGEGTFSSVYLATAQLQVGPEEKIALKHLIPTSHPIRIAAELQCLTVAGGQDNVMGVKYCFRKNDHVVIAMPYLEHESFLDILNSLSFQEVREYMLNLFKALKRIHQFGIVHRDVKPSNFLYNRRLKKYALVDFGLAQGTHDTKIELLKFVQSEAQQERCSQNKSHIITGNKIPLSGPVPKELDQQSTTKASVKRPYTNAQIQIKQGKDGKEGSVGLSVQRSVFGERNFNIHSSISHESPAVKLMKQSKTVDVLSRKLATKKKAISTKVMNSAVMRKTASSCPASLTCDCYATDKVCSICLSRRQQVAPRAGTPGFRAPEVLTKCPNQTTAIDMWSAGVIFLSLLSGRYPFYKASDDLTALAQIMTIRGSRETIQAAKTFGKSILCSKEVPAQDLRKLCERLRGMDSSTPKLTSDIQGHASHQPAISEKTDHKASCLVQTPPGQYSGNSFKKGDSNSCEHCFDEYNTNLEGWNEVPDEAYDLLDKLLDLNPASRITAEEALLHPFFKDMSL
T1 sequence (Q9UBU7 whole entry partner): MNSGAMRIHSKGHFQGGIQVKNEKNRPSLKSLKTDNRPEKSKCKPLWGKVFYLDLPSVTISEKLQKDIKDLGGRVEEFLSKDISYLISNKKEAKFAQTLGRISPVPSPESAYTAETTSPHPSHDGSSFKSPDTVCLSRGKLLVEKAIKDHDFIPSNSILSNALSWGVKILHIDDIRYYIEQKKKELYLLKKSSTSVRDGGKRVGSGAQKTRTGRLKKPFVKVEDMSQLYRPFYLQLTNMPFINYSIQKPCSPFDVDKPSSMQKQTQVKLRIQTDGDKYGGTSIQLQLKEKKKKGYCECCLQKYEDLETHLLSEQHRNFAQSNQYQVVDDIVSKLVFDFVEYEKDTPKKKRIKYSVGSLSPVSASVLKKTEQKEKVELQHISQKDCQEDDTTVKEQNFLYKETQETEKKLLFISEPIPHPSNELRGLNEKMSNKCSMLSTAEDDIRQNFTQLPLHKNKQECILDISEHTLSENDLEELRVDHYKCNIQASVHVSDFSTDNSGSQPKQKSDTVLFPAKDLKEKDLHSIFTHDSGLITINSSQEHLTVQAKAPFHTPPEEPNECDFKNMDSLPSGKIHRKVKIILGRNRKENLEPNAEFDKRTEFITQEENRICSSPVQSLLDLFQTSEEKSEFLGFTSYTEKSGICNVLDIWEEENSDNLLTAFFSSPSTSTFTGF

This experiment has as its target T1, Cdc7 (BEV coexpressed huCDC7/DBF4) (Homo sapiens, UniProt O00311).
T1 construct: made in house; host or cells: BEV (baculovirus expression vector) co-expression; insect cells are implied but no cell line is named
Put plainly: Cdc7 enzyme inhibition assay ([33P]ATP, biotinylated peptide substrate, FlashPlate). Type of experiment: biochemical. Particulars: Table 3; enzyme inhibition data (Ki). As for the experimental part:
Cdc7 (BEV coexpressed huCDC7/DBF4) is prepared internally. Cdc7 assays are conducted as follows with final concentrations as listed. […] Reactions are quenched after 1 hr by the addition of 90 μL stop buffer (50 mM EDTA, 2M NaCl). […] (Ki) for exemplary compounds.
Take `CN1CCCC(CNc2cc(-c3c[nH]c4ncccc34)cc(Cl)n2)C1` (stereo not drawn) [Example 146, 6-chloro-N-[(1-methylpiperidin-3-yl)methyl]-4-(1H-pyrrolo[2,3-b]pyridin-3-yl)pyridin-2-amine]: the pKi was over 8.00.

With `CC(=O)N1CCCC(Nc2cc(-c3c[nH]c4ncccc34)cc(Cl)n2)C1` (stereo not drawn) [Example 147, 1-(3-{[6-chloro-4-(1H-pyrrolo[2,3-b]pyridin-3-yl)pyridin-2-yl]amino}piperidin-1-yl)ethanone], the pKi was over 8.00.

In the case of `CN1CCC(N[C@H]2CC[C@H](Nc3cc(-c4c[nH]c5ncccc45)cc(Cl)n3)CC2)CC1` [Example 148, trans-N-[6-chloro-4-(1H-pyrrolo[2,3-b]pyridin-3-yl)pyridin-2-yl]-N′-(1-methylpiperidin-4-yl)cyclohexane-1,4-diamine], the pKi is over 8.00.

`COc1cnc2[nH]cc(-c3cc(Cl)nc(N[C@H]4CC[C@H](O)CC4)c3)c2c1` [Example 149, trans-4-{[6-chloro-4-(5-methoxy-1H-pyrrolo[2,3-b]pyridin-3-yl)pyridin-2-yl]amino}cyclohexanol] had a pKi of over 8.00.

As to `O=C(CN1CCOCC1)Nc1cc(-c2c[nH]c3ncccc23)cc(Cl)n1` [Example 150, N-[6-chloro-4-(1H-pyrrolo[2,3-b]pyridin-3-yl)pyridin-2-yl]-2-(morpholin-4-yl)acetamide], the pKi is over 8.00.

`O=C(CN[C@H]1CC[C@H](O)CC1)N[C@H]1CC[C@H](Nc2cc(-c3c[nH]c4ncccc34)cc(Cl)n2)CC1` [Example 152, N-(trans-4-{[6-chloro-4-(1H-pyrrolo[2,3-b]pyridin-3-yl)pyridin-2-yl]amino}cyclohexyl)-N^2-(trans-4-hydroxycyclohexyl)glycinamide] gave a pKi of over 8.00.

With `O=C(CNCCN1CCOCC1)N[C@H]1CC[C@H](Nc2cc(-c3c[nH]c4ncccc34)cc(Cl)n2)CC1` [Example 153, N-(trans-4-{[6-chloro-4-(1H-pyrrolo[2,3-b]pyridin-3-yl)pyridin-2-yl]amino}cyclohexyl)-N^2-[2-(morpholin-4-yl)ethyl]glycinamide], the pKi was over 8.00.

`CN(C)C1CCC(CC2CCC(Nc3cc(-c4c[nH]c5ncccc45)cc(Cl)n3)CC2)CC1` (stereo not drawn) [Example 155, 6-chloro-N-(4-{[4-(dimethylamino)cyclohexyl]methyl}cyclohexyl)-4-(1H-pyrrolo[2,3-b]pyridin-3-yl)pyridin-2-amine] showed a pKi of over 8.00.

`Clc1cc(-c2c[nH]c3ncccc23)cc(NC2CCC(CC3CCC(NC4CCCCC4)CC3)CC2)n1` (stereo not drawn) [Example 156] had a pKi of over 8.00.

`Clc1cc(-c2c[nH]c3ncccc23)cc(N[C@H]2CC[C@H](NC3CCN(C4CCCCC4)CC3)CC2)n1` [Example 157, trans-N-[6-chloro-4-(1H-pyrrolo[2,3-b]pyridin-3-yl)pyridin-2-yl]-N′-(1-cyclohexylpiperidin-4-yl)cyclohexane-1,4-diamine] showed a pKi of over 8.00.

The compound `Clc1cc(-c2c[nH]c3ncccc23)cc(NC2CCC(C3CCNCC3)CC2)n1` (stereo not drawn) [Example 159, 6-chloro-N-[4-(piperidin-4-yl)cyclohexyl]-4-(1H-pyrrolo[2,3-b]pyridin-3-yl)pyridin-2-amine] gave a pKi of over 8.00.

The compound `O=C(N[C@H]1CC[C@H](Nc2cc(-c3c[nH]c4ncccc34)cc(Cl)n2)CC1)C1CNC1` [Example 160, N-(trans-4-{[6-chloro-4-(1H-pyrrolo[2,3-b]pyridin-3-yl)pyridin-2-yl]amino}cyclohexyl)azetidine-3-carboxamide] gave a pKi of over 8.00.

In turn, `CC(=O)NC1CCC(N[C@H]2CC[C@H](Nc3cc(-c4c[nH]c5ncccc45)cc(Cl)n3)CC2)CC1` (stereo partly drawn) [Example 161, N-{4-[(trans-4-{[6-chloro-4-(1H-pyrrolo[2,3-b]pyridin-3-yl)pyridin-2-yl]amino}cyclohexyl)amino]cyclohexyl}acetamide] had a pKi of over 8.00.

Compound `O=C(NC1CCC(N[C@H]2CC[C@H](Nc3cc(-c4c[nH]c5ncccc45)cc(Cl)n3)CC2)CC1)C1CC1` (stereo partly drawn) [Example 162, N-{4-[(trans-4-{[6-chloro-4-(1H-pyrrolo[2,3-b]pyridin-3-yl)pyridin-2-yl]amino}cyclohexyl)amino]cyclohexyl}cyclopropanecarboxamide] had a pKi of over 8.00.

Turning to `CC(=O)N1CCC(C2CCC(Nc3cc(-c4c[nH]c5ncccc45)cc(Cl)n3)CC2)CC1` (stereo not drawn) [Example 163, 1-[4-(4-{[6-chloro-4-(1H-pyrrolo[2,3-b]pyridin-3-yl)pyridin-2-yl]amino}cyclohexyl)piperidin-1-yl]ethanone], the pKi was over 8.00.

Take `CC(=O)NCCS(=O)(=O)NC1CCCC(Nc2cc(-c3c[nH]c4ncccc34)cc(Cl)n2)C1` (stereo not drawn) [Example 164, N-{2-[(3-{[6-chloro-4-(1H-pyrrolo[2,3-b]pyridin-3-yl)pyridin-2-yl]amino}cyclohexyl)sulfamoyl]ethyl}acetamide]: the pKi was over 8.00.

`O=C(NCCS(=O)(=O)NC1CCCC(Nc2cc(-c3c[nH]c4ncccc34)cc(Cl)n2)C1)C1CC1` (stereo not drawn) [Example 165, N-{2-[(3-{[6-chloro-4-(1H-pyrrolo[2,3-b]pyridin-3-yl)pyridin-2-yl]amino}cyclohexyl)sulfamoyl]ethyl}cyclopropanecarboxamide] showed a pKi of over 8.00.

`O=C(N[C@H]1CC[C@H](Nc2cc(-c3c[nH]c4ncccc34)cc(Cl)n2)CC1)C1CN(Cc2ccc(F)cc2)C1` [Example 166, N-(trans-4-{[6-chloro-4-(1H-pyrrolo[2,3-b]pyridin-3-yl)pyridin-2-yl]amino}cyclohexyl)-1-(4-fluorobenzyl)azetidine-3-carboxamide] gave a pKi of over 8.00.

Take `CS(=O)(=O)N1CC(C(=O)N[C@H]2CC[C@H](Nc3cc(-c4c[nH]c5ncccc45)cc(Cl)n3)CC2)C1` [Example 167, N-(trans-4-{[6-chloro-4-(1H-pyrrolo[2,3-b]pyridin-3-yl)pyridin-2-yl]amino}cyclohexyl)-1-(methylsulfonyl)azetidine-3-carboxamide]: the pKi is over 8.00.

In the case of `Clc1cc(-c2c[nH]c3nccc(Cl)c23)cc(NC2CCCCC2)n1` [Example 168, 6-chloro-4-(4-chloro-1H-pyrrolo[2,3-b]pyridin-3-yl)-N-cyclohexylpyridin-2-amine], the pKi is over 8.00.

On to `O=S(=O)(CCNC1CCC1)NC1CCCC(Nc2cc(-c3c[nH]c4ncccc34)cc(Cl)n2)C1` (stereo not drawn) [Example 170, N-(3-{[6-chloro-4-(1H-pyrrolo[2,3-b]pyridin-3-yl)pyridin-2-yl]amino}cyclohexyl)-2-(cyclobutylamino)ethanesulfonamide], for which the negative-log Ki (pKi) was over 8.00.

`Clc1cc(-c2c[nH]c3ncc(-c4cn[nH]c4)cc23)cc(NC2CCCCC2)n1` [Example 171, 6-chloro-N-cyclohexyl-4-[5-(1H-pyrazol-4-yl)-1H-pyrrolo[2,3-b]pyridin-3-yl]pyridin-2-amine] gave a negative logarithm of the Ki (pKi) of over 8.00.

In turn, `O=C(NCCS(=O)(=O)NC1CCCC(Nc2cc(-c3c[nH]c4ncccc34)cc(Cl)n2)C1)c1cnccn1` (stereo not drawn) [Example 172, N-{2-[(3-{[6-chloro-4-(1H-pyrrolo[2,3-b]pyridin-3-yl)pyridin-2-yl]amino}cyclohexyl)sulfamoyl]ethyl}pyrazine-2-carboxamide] had a pKi of over 8.00.

In the case of `Clc1cc(-c2c[nH]c3ncc(Br)cc23)cc(NC2CCCCC2)n1` [Example 173, 4-(5-bromo-1H-pyrrolo[2,3-b]pyridin-3-yl)-6-chloro-N-cyclohexylpyridin-2-amine], the pKi is over 8.00.

Usually pKi stands for −log10 of the Ki, conventionally taken in molar units. Higher therefore signals a small Ki.

For the origin of these results see patent US8435980B2 (AbbVie Inc., priority 2009, dated 2013).
